From patent US7030130B2, “Benzofuran derivatives and their use as antibacterial agents” (Arpida AG, priority 2000, dated 2006)
Values after ≈ are worked out from the molar mass of the structure shown.

Key:
Experiment in all cases: Antimicrobial susceptibility testing (NCCLS M7-A5), MIC
Type in all cases: cell-based
[1] = tested on: Escherichia coil ATCC 25922; conditions: ATCC25922, in vitro, read-out: Minimum Inhibitory Concentration (MIC)
Method: (§1) Antimicrobial susceptibility testing was performed in accordance with the National Committee for Clinical Laboratory Standards (NCCLS) procedure [M7-A5, 2001]. […] Methods for Dilution Antimicrobial Susceptibility Tests for Bacteria That Grow Aerobically; Approved Standard—Fifth Edition American National Standard

[2] = tested on: Bacillus subtilis ATCC 6051; conditions: ATCC6051, in vitro, read-out: Minimum Inhibitory Concentration (MIC)
Method: as §1

[3] = tested on: Staphylococcus epidermidis ATCC 12228; conditions: ATCC12228, in vitro, read-out: Minimum Inhibitory Concentration (MIC)
Method: as §1

[4] = tested on: Streptococcus pneumoniae ATCC 49619; conditions: ATCC49619, in vitro, read-out: Minimum Inhibitory Concentration (MIC)
Method: as §1

[5] = tested on: Enterococcus faecalis ATCC 29212; conditions: ATCC29212, in vitro, read-out: Minimum Inhibitory Concentration (MIC)
Method: as §1

[6] = tested on: Staphylococcus aureus ATCC 25923; conditions: ATCC25923, in vitro, read-out: Minimum Inhibitory Concentration (MIC)
Method: as §1

| SMILES | MIC [1] [µg/mL] | MIC [2] [µg/mL] | MIC [3] [µg/mL] | MIC [4] [µg/mL] | MIC [5] [µg/mL] | MIC [6] [µg/mL] |
| --- | --- | --- | --- | --- | --- | --- |
| COc1cc(Cc2cnc(N)nc2N)c2cc(CC3CC3)oc2c1OC [Example 20, 5-(2-Cyclopropylmethyl-6,7-dimethoxy-benzofuran-4-ylmethyl)-pyrimidine-2,4-diamine] | 4 (≈ 11.3 µM) | 0.062 (≈ 0.175 µM) | 0.062 (≈ 0.175 µM) | 0.125 (≈ 0.353 µM) | 0.5 (≈ 1.41 µM) | 0.062 (≈ 0.175 µM) |
| COc1cc(Cc2cnc(N)nc2N)c2cc(Cc3ccccc3)oc2c1OC [Example 21, 5-(2-Benzyl-6,7-dimethoxy-benzofuran-4-ylmethyl)-pyrimidine-2,4-diamine] | 2 (≈ 5.12 µM) | 0.062 (≈ 0.159 µM) | 0.062 (≈ 0.159 µM) | 0.5 (≈ 1.28 µM) | 0.125 (≈ 0.32 µM) | 0.062 (≈ 0.159 µM) |
| COc1cc(Cc2cnc(N)nc2N)c2cc(Cc3ccc(F)cc3)oc2c1OC [Example 72, 5-[2-(4-fluoro-benzyl)-6,7-dimethoxy-benzofuran-4-ylmethyl]-pyrimidine-2,4-diamine] | 2 (≈ 4.9 µM) | 0.25 (≈ 0.612 µM) | 0.015 (≈ 0.0367 µM) | 0.5 (≈ 1.22 µM) | 1 (≈ 2.45 µM) | 0.25 (≈ 0.612 µM) |
| COc1cc(Cc2cnc(N)nc2N)cc(OC)c1OC [Trimethoprim, 2,4-diamino-5-(3,4,5-trimethoxybenzyl)pyrimidine, reference compound] | 0.25 (≈ 0.861 µM) | 0.5 (≈ 1.72 µM) | 0.062 (≈ 0.214 µM) | 2 (≈ 6.89 µM) | 0.5 (≈ 1.72 µM) | 2 (≈ 6.89 µM) |
